Measurements from patent US7157092B1, “Acyl pseudodipeptides, preparation method and pharmaceutical compositions containing same” (Om Pharma, priority 1998, dated 2007).
“And” between values parts separate entries of the source, which are not always exact repeats. Equal entries are not always repeated.

System: TT antigen
Experiment: Subcutaneous immunization with TT antigen (tetanos toxoid): specific serum immunoglobulins (ELISA)
Type: in vivo, BALB/c mice
Conditions: for adjuvant effect on titer of IgG1 and IgG2a antibodies specifically raised against TT: after one or two injections, FIGS. 28, 29; for Titer of immunoglobulins specifically directed against TT of IgM subclass (number of animals and dilution): dilution giving signal at 490 nm greater than mean ± 3 SD of group A; for Immunoglobulins specifically raised against TT of IgG1 subclass / Immunoglobulins specifically raised against TT of IgG2a subclass: s.c. injections days 0 and 14, adjuvant 50 μg per injection, ± SD
Description: To this end, 40 BALB/c mice (females, 8 weeks-old at the beginning of treatment) are divided into 4 groups as follows:
Antigen: A TT stock solution is prepared at a concentration of 0.2 mg/ml in 0.9% NaCl.
The negative control consists of a 0.9% NaCl solution without antigen.
Antigen-Adjuvant mixture: Adjuvants are allowed to stand for 20 minutes at 37° C. before vortex treatment for 3 minutes. Then the antigen and (0.9%) NaCl are added as specified in the above Table, and the antigen/adjuvant mixture is vortexed briefly before placing it on a rotary stirrer for 15 minutes at room temperature, then the whole mixture is vortexed for 3 minutes.
Immunization regimen: Injections are scheduelled on days 0 and 14. The mixtures stated in the preceeding table are administered by subcutaeous route (75 μl on the side, 150 μl in total per animal). Blood sampling is scheduelled on days 14 and 28 (orbital puncture).
Assay for anti-TT immunoglobulins: The following serum Immunolglobulins which are specifically directed against TT are assayed in duplicate by ELISA: IgG1, IgG2a, and IgM. Microtiter plates (NUNC Immunoplate, Roskilde, DK) are incubated (overnight coating) at 4° C. together with 100 μl TT (0.5 μg) in bicarbonate buffer (pH 9.6). After washing with 0.5% Tween-20 (Merck Hohenbrunn, D), sera are diluted 50-, 200- and 800-fold (diluting solution: phosphate buffered saline (PBS)+1% bovine serum albumin (BSA, Sigma, St. Louis, Mo., USA)+0.02% Tween-20)). 100 μl of each dilute serum sample are added to the wells. Incubation lasts 45 minutes at 37° C.
After a second washing step, IgG1, IgG2a and IgM specifically directed to ovalbumin are incubated for 30 minutes at 37° C. together with 100 μl of anti-IgG1 antibodies-peroxydase conjugate (Serotec, Oxford, UK), IgG2a-peroxydase conjugate (Pharmingen, San Diego, Calif., USA) and IgM-biotin conjugate (Pharmingen, San Diego, Calif., USA), diluted beforehand in PBS/BSA/Tween buffer (250-, 1000-, 500-fold dilutions, respectively). For IgM, after an extra washing step, a 3rd incubation step is required (30 min. at 37° C.) with a 1:100 dilute solution of streptavidin-peroxydase conjugate (Dako, Glostrup, DK).
After the washing step, 100 μl of a phenylene 1,2-diamine solution (OPD, Merck, Darmstadt, GFR) are added to detect peroxydase-coupled anti-IgG1 and anti-IgG2 secondary antibodies (whereas for IgM, the reagent being used is 3′, 3′, 5′,5′-tetramethylbenzidine (TMB, Sigma, St. Louis, Mo., USA). After a 20 minute incubation period at room temperature (40 min. for TMB), the reaction is stopped by adding 100 μl of 2N H2SO4. Absorbance values are read at 490 nm with a Bio-Rad 3550 model plate reader
Results of each reading at 490 nm when measuring IgG1 and IgG2a are given in arbitrary units (A.U.) per ml. This is achieved by comparing each sample with a standard prepared from different dilutions of a sample pool collected from the group B at day 28 (animals injected with TT alone). As this term implies, the sample pool diluted 50-fold is at a concentration of 1000 A.U./ml. Individual results are then corrected for the corresponding dilution factor (50, 200, or 800 fold). Only the mean values of each group and the standard deviation (SD) are herein reported.
Regarding the assay of IgM specific for TT, since the “background noise” of the assay was too high, no clear cut difference could be found between group B (TT alone) and groups C and D (TT with adjuvant) by measuring specific IgM as previously done for IgG1 and IgG2a. Instead, specific IgM titer could be determined, using successive dilutions of each sample (rather than A.U. described before) and the result was reported, for each sample, as the highest dilution which gives an absorbance reading greater than mean absorbance±3 SD for group A (NaCl).

CCCCCCCCCCCC(=O)O[C@H](CCCCCCCCCCC)CC(=O)NC(CCOP(=O)(O)O)C(=O)NCCCC(COP(=O)(O)O)NC(=O)C[C@H](O)CCCCCCCCCCC (stereo partly drawn) [OM-294-DP, 3-[(R)-3-dodecanoyloxytetradecanoylamino]-4-oxo-5-aza-9-[(R)-3-hydroxytetradecanoylamino]decan-1,10-diol 1, 10-bis(dihydrogenphosphate)]
adjuvant effect on titer of IgG1 and IgG2a antibodies specifically raised against TT: often significantly increase the titer of IgG1 and IgG2a antibodies

CCCCCCCCCCCC(=O)O[C@H](CCCCCCCCCCC)CC(=O)NC(CCOP(=O)(O)O)C(=O)NCCCC(CO)NC(=O)C[C@H](O)CCCCCCCCCCC (stereo partly drawn) [OM-294-MP, 3-[(R)-3-dodecanoyloxytetradecanoylamino]-4-oxo-5-aza-9-[(R)-3-hydroxytetradecanoylamino]-decane-1,10-diol 1-dihydrogenphosphate]
adjuvant effect on titer of IgG1 and IgG2a antibodies specifically raised against TT: often significantly increase the titer of IgG1 and IgG2a antibodies

TT: TT antigen (tetanos toxoid, Massachussetts Biologic Laboratoires), injected alone
Titer of immunoglobulins specifically directed against TT of IgM subclass (number of animals and dilution) (Day 14): 9 animals < 25 and 1 animal < 50
Immunoglobulins specifically raised against TT of IgG1 subclass (Day 14): 2871 ± 1633 Arbitrary units/ml
Immunoglobulins specifically raised against TT of IgG2a subclass (Day 14): 2547 ± 2539 Arbitrary units/ml
Titer of immunoglobulins specifically directed against TT of IgM subclass (number of animals and dilution) (Day 28): 10 animals < 25
Immunoglobulins specifically raised against TT of IgG1 subclass (Day 28): 34367 ± 15018 Arbitrary units/ml
Immunoglobulins specifically raised against TT of IgG2a subclass (Day 28): 61387 ± 82269 Arbitrary units/ml
